Among the data in US9481676B2, “Azepino[4,5-B]indoles and methods of use” (Medivation Technologies, Inc., priority 2008, dated 2016) are inhibition values, retold here.

Assay [1] deals with T1, human recombinant adrenergic α1D receptor (Homo sapiens, UniProt P25100).
T1 construct: expressed in transfected cells; host or cells: HEK-293 cells
T1 sequence (P25100 1-572): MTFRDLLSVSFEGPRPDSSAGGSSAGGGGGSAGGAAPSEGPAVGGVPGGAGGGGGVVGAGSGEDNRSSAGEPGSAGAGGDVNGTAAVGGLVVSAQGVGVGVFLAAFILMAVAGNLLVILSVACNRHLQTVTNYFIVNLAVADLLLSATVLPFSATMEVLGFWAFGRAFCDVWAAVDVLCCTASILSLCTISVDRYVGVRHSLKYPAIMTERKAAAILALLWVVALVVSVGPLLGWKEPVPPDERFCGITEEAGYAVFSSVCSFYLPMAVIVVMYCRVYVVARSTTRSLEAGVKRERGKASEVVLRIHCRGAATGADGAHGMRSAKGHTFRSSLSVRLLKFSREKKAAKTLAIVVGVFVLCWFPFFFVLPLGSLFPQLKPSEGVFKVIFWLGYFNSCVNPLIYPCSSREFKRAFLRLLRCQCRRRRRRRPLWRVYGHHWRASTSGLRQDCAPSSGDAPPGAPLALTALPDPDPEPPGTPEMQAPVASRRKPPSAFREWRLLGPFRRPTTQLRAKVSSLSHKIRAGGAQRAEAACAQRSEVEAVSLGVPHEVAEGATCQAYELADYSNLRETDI
In words: Adrenergic alpha1D radioligand binding ([3H]Prozosin). As to conditions: compound at 1 μM; read-out: Adrenergic (1 μM) α1D, percent inhibition of specific binding. In a few lines: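 Membranes from HEK-293 cells expressing the human receptor in 50 mM Tris-HCl pH 7.4 were incubated 60 min at 25 °C with 0.6 nM [3H]prazosin. Nonspecific binding was defined with 10 μM phentolamine, and bound ligand measured by filtration.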

The target in assay [2] is T2, human recombinant adrenergic α2B receptor (Homo sapiens, UniProt P18089).
T2 construct: expressed in transfected cells; host or cells: CHO-K1 cells
T2 sequence (P18089 1-450): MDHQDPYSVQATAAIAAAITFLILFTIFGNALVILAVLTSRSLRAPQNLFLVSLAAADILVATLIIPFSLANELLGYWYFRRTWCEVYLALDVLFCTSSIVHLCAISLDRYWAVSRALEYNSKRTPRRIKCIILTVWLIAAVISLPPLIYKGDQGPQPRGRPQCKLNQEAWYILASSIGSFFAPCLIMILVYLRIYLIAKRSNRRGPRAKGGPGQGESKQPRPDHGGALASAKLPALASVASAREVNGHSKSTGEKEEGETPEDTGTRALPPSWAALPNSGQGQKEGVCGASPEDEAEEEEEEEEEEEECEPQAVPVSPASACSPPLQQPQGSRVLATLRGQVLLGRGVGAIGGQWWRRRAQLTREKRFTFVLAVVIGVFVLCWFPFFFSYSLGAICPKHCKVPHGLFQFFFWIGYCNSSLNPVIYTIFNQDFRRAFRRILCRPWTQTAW
In words: Adrenergic alpha2B radioligand binding ([3H]Rauwolscine). The following applies: compound at 1 μM; read-out: Adrenergic (1 μM) α2B, percent inhibition of specific binding. In a few lines:
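CHO-K1-expressed receptor in Tris-HCl pH 7.4 with MgCl2, EDTA, BSA, incubated 60 min at 25° C with 2.5 nM [3H]Rauwolscine; 10 μM prazosin defines non-specific binding.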

In assay [3] the target is T3, human recombinant serotonin (5-Hydroxytryptamine) 5-HT2A receptor (Homo sapiens, UniProt P28223).
T3 construct: expressed in transfected cells; host or cells: CHO-K1 cells
In words: Serotonin 5-HT2A radioligand binding ([3H]Ketanserin). The following applies: compound at 1 μM; read-out: Serotonin (1 μM) 5-HT2A, percent inhibition of specific binding. The method, boiled down:
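Percent inhibition of specific [3H]ketanserin (0.5 nM) binding, filtration read-out, with compounds at ≤1 μM (1% DMSO vehicle). Receptor source: recombinant human 5-HT2A in CHO-K1 cells, 50 mM Tris-HCl pH 7.4, 60 min, 25 °C; 1 μM mianserin gives nonspecific binding.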

Assay [4] concerns the target T4, human recombinant serotonin (5-Hydroxytryptamine) 5-HT6 receptor (Homo sapiens, UniProt P50406).
T4 construct: expressed in transfected cells; host or cells: human HeLa cells
Kind of assay: Serotonin 5-HT6 radioligand binding ([3H]LSD). As to conditions: compound at 1 μM; read-out: Serotonin (1 μM) 5-HT6, percent inhibition of specific binding. The method, boiled down: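 Human recombinant 5-HT6 receptor from HeLa cells incubated with 1.5 nM [3H]LSD for 120 min at 37° C in 50 mM Tris-HCl pH 7.4, 150 mM NaCl, 2 mM ascorbic acid, 0.001% BSA. Nonspecific binding defined with 5 μM serotonin; bound ligand counted after filtration.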

T3 sequence (P28223 whole entry): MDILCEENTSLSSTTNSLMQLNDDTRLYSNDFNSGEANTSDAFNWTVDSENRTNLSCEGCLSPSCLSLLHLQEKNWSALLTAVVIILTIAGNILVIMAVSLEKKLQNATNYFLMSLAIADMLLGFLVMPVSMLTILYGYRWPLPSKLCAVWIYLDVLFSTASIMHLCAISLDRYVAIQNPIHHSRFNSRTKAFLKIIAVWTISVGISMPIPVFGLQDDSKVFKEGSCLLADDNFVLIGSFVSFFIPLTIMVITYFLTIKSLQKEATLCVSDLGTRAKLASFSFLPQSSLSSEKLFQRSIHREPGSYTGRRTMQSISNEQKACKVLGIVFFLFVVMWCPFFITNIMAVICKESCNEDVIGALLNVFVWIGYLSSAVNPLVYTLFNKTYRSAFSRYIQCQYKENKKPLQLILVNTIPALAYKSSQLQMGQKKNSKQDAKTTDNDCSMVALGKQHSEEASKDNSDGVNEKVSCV
T4 sequence (P50406 whole entry): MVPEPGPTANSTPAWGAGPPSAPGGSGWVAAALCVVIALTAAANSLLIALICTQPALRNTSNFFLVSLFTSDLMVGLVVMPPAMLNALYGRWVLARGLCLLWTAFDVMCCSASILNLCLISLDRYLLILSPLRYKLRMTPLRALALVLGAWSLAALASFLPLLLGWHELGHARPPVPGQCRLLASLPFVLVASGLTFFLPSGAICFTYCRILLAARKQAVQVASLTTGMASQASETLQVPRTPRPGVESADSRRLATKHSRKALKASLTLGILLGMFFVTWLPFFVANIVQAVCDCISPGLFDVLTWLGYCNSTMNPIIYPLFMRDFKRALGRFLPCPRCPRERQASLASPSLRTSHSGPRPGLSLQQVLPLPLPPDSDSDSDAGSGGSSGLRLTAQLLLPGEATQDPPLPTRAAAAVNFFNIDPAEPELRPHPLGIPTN

As a reminder, the inhibition is the relative decrease from the control value, in per cent. For the compound `Cc1ccc2c(c1)c1c(n2CC(=O)Nc2ccccc2)CCN(C)CC1` [Compound No. 79, 2-(2,3,4,5-tetrahydro-3,9-dimethylazepino[4,5-b]indol-6(1H)-yl)-N-phenylacetamide], the inhibition at 1 µM was -6% in assay [1], 20% in assay [2], -8% in assay [3] and -7% in assay [4].

As for `C/C(=C/n1c2c(c3cc(C)ccc31)CCN(C)CC2)c1ccc(Cl)cc1Cl` [Compound No. 174, (Z)-6-(2-(2,4-dichlorophenyl)prop-1-enyl)-1,2,3,4,5,6-hexahydro-3,9-dimethylazepino[4,5-b]indole], the inhibition at 1 µM was 89% in assay [1], 105% in assay [2], 102% in assay [3] and 100% in assay [4].

For `COc1ccc(C(O)Cn2c3c(c4cc(Cl)ccc42)CCN(C)CC3)cc1OC` (centres unmarked) [Compound No. 77, 2-(9-chloro-2,3,4,5-tetrahydro-3-methylazepino[4,5-b]indol-6(1H)-yl)-1-(3,4-dimethoxyphenyl)ethanol], the inhibition at 1 µM in assay [1] is 81%; in assay [2] it was 113%; in assay [3], 90%; in assay [4], 33%.

In the case of `CN1CCc2c(n(CCc3ccc(C(F)(F)F)nc3)c3ccc(Cl)cc23)CC1` [Compound No. 1, 9-chloro-6-(2-(6-(trifluoromethyl)pyridin-3-yl)ethyl)-1,2,3,4,5,6-hexahydro-3-methylazepino[4,5-b]indole], the inhibition at 1 µM in assay [1] was 90%; in assay [2], 107%; in assay [3], 98%; in assay [4], 86%.

Take `COc1ccc(C(O)Cn2c3c(c4cc(C)ccc42)CCN(C)CC3)cc1OC` (centres unmarked) [Compound No. 227, 1-(3,4-dimethoxyphenyl)-2-(3,9-dimethyl-2,3,4,5-tetrahydroazepino[4,5-b]indol-6(1H)-yl)ethanol]: the inhibition at 1 µM in assay [1] stood at 73%; in assay [2], 98%; in assay [3], 85%; in assay [4], 30%.

Take `COc1ccc(/C=C/n2c3c(c4cc(C)ccc42)CCN(C)CC3)cc1F` [Compound No. 180, (E)-6-(3-fluoro-4-methoxystyryl)-1,2,3,4,5,6-hexahydro-3,9-dimethylazepino[4,5-b]indole]: the inhibition at 1 µM in assay [1] was determined as 98%; in assay [2] it was 103%; in assay [3], 101%; in assay [4], 95%.

Consider `COc1ccc(/C=C/n2c3c(c4cc(Cl)ccc42)CCN(C)CC3)cc1` [Compound No. 78, 6-(4-methoxystyryl)-9-chloro-1,2,3,4,5,6-hexahydro-3-methylazepino[4,5-b]indole], for which the inhibition at 1 µM stood at 102% in assay [1], 111% in assay [2], 100% in assay [3] and 91% in assay [4].

Turning to `C/C(=C\n1c2c(c3cc(Cl)ccc31)CCN(C)CC2)c1ccc(F)cc1` [Compound No. 2, 9-chloro-6-((E)-2-(4-fluorophenyl)prop-1-enyl)-1,2,3,4,5,6-hexahydro-3-methylazepino[4,5-b]indole], the inhibition at 1 µM in assay [1] amounted to 100%; in assay [2], 111%; in assay [3], 99%; in assay [4] it was 103%.

Consider `C=C(Cn1c2c(c3cc(Cl)ccc31)CCN(C)CC2)c1ccc(F)cc1` [Compound No. 82, 9-chloro-6-(2-(4-fluorophenyl)allyl)-3-methyl-1,2,3,4,5,6-hexahydroazepino[4,5-b]indole], for which the inhibition at 1 µM in assay [1] turned out to be 96%; in assay [2] it was 91%; in assay [3], 98%; in assay [4], 104%.

With `CC1CCN(C(=O)Cn2c3c(c4cc(Cl)ccc42)CCN(C)CC3)CC1` [Compound No. 76, 2-(9-chloro-2,3,4,5-tetrahydro-3-methylazepino[4,5-b]indol-6(1H)-yl)-1-(4-methylpiperidin-1-yl)ethanone], the inhibition at 1 µM in assay [1] amounted to 37%; in assay [2], 31%; in assay [3] it was 52%; in assay [4], 39%.

Consider `Cc1ccc2c(c1)c1c(n2CC(=O)N2CCC(C)CC2)CCN(C)CC1` [Compound No. 225, 2-(3,9-dimethyl-2,3,4,5-tetrahydroazepino[4,5-b]indol-6(1H)-yl)-1-(4-methylpiperidin-1-yl)ethanone], for which the inhibition at 1 µM worked out at 34% in assay [1], 13% in assay [2], 38% in assay [3] and 16% in assay [4].

For `CN1CCc2c(n(/C=C/c3ccccc3)c3ccc(Cl)cc23)CC1` [Compound No. 228, (E)-9-chloro-3-methyl-6-styryl-1,2,3,4,5,6-hexahydroazepino[4,5-b]indole], the inhibition at 1 µM in assay [1] worked out at 98%; in assay [2], 110%; in assay [3], 99%; in assay [4], 104%.

For `COc1ccc(/C=C/n2c3c(c4cc(Cl)ccc42)CCN(C)CC3)cc1F` [Compound No. 158, (E)-6-(3-fluoro-4-methoxystyryl)-9-chloro-1,2,3,4,5,6-hexahydro-3-methylazepino[4,5-b]indole], the inhibition at 1 µM in assay [1] came to 98%; in assay [2], 109%; in assay [3], 101%; in assay [4] it was 93%.

Take `C/C(=C/n1c2c(c3cc(Cl)ccc31)CCN(C)CC2)c1ccc(Cl)cc1Cl` [Compound No. 152, (Z)-9-chloro-6-(2-(2,4-dichlorophenyl)prop-1-enyl)-1,2,3,4,5,6-hexahydro-3-methylazepino[4,5-b]indole]: the inhibition at 1 µM in assay [1] was 47%; in assay [2], 88%; in assay [3], 100%; in assay [4] it was 73%.

As for `COc1ccc(/C=C/n2c3c(c4cc(Cl)ccc42)CCN(C)CC3)cc1OC` [Compound No. 226, (E)-9-chloro-6-(3,4-dimethoxystyryl)-3-methyl-1,2,3,4,5,6-hexahydroazepino[4,5-b]indole], the inhibition at 1 µM is 83% in assay [1], 102% in assay [2], 92% in assay [3] and 36% in assay [4].

Turning to `CN1CCc2c(n(/C=C/c3ccccc3F)c3ccc(Cl)cc23)CC1` [Compound No. 83, (E)-9-chloro-6-(2-fluorostyryl)-3-methyl-1,2,3,4,5,6-hexahydro azepino[4,5-b]indole], the inhibition at 1 µM in assay [1] is 93%; in assay [2], 113%; in assay [3], 99%; in assay [4], 103%.

Take `Cc1ccc2c(c1)c1c(n2CC(=O)N2CCNCC2)CCN(C)CC1` [Compound No. 224, 2-(3,9-dimethyl-2,3,4,5-tetrahydroazepino[4,5-b]indol-6(1H)-yl)-1-(piperazin-1-yl)ethanone]: the inhibition at 1 µM is 19% in assay [1], -6% in assay [2], -7% in assay [3] and -4% in assay [4].
